No end group written: not given here.
Columns and labels:
VPAC1 receptor = molecular target: T1, VPAC1 receptor (Homo sapiens, UniProt P32241); conditions: cited from earlier work
T1 sequence (P32241 31-457): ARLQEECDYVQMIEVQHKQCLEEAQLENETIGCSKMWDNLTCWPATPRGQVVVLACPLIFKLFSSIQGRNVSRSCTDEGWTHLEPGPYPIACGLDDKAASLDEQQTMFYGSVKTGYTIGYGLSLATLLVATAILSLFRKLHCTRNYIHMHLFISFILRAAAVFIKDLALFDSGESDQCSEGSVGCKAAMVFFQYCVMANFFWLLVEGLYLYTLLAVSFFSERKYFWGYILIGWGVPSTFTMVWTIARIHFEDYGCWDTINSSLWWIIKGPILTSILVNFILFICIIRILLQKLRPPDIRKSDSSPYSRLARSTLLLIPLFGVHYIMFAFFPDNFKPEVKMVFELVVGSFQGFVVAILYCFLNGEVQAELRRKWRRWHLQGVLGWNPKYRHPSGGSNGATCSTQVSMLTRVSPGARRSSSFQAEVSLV

VPAC2 receptors = molecular target: T2, VPAC2 receptors (Homo sapiens, UniProt P41587); conditions: read-out: IC50 for VPAC2 receptor; cited from earlier work
T2 sequence (P41587 24-438): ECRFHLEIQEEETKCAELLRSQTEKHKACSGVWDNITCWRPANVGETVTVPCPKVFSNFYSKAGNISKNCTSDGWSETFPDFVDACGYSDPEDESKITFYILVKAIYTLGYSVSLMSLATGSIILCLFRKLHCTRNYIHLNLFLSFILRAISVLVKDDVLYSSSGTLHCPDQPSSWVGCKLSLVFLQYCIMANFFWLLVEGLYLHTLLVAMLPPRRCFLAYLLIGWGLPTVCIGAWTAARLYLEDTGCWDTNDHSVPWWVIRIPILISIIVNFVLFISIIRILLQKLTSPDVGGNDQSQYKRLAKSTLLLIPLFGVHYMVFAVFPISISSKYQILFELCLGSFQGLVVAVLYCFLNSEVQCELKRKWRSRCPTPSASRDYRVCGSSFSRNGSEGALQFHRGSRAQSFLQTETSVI

[1] = humans; cited from earlier work
VIPR1 = molecular target: T3, VIPR1 (Homo sapiens, UniProt P32241); assay: cAMP Hunter cell line agonist mode assay (DiscoveRx HitHunter cAMP XS+); assay type: cell-based; conditions: for Mean RLU: readout cAMP, cell line VIPR1
T3 sequence (P32241 31-457): T1 sequence (P32241 31-457)
Protocol: (§1) Once it was established that the cells were healthy and growing normally, cells were passaged from flasks using cell dissociation reagent buffer and seeded into white walled clear bottom 384-well microplates for compound profiling. For profiling, cells were seeded at a density of 10,000 cells per well in a total volume of 20 μL and were allowed to adhere and recover overnight prior to compound addition. cAMP modulation was determined using the DiscoveRx HitHunter cAMP XS+ assay.
(§2) For profiling compound in agonist mode, the cells were incubated in the presence of compound at 37° C. for 30 minutes. […] After appropriate compound incubation, assay signal was generated through incubation with DiscoverX lysis cocktail according to the manufacturers standard protocol. Dose curves were plotted using GraphPad Prism or Activity Base. Percentage activity is calculated using the following formula:
(§3) % Activity=100% ×(mean RLU of test sample−mean RLU of vehicle control)/(mean RLU of MAX control−mean RLU of vehicle control).

VIPR2 = molecular target: T4, VIPR2 (Homo sapiens, UniProt P41587); assay: as above; assay type: cell-based; conditions: for Mean RLU: readout cAMP, cell line VIPR2
T4 sequence (P41587 24-438): T2 sequence (P41587 24-438)
Protocol: as §1, §2, §3

calcitonin (CT) receptor = conditions: cited from earlier work
[2] = test system: calcitonin-gene related peptide (CGRP) and adrenomedullin receptors; conditions: cited from earlier work
neurotensin receptors = conditions: rat brain receptors; read-out: IC50 for inhibition of {Trp11}-NT binding; cited from earlier work
rat CRF1 receptors = molecular target: T5, rat CRF1 receptors (Rattus norvegicus, UniProt P35353); conditions: read-out: Kd for binding to rat CRF1 receptors; cited from earlier work
T5 sequence (P35353 24-415): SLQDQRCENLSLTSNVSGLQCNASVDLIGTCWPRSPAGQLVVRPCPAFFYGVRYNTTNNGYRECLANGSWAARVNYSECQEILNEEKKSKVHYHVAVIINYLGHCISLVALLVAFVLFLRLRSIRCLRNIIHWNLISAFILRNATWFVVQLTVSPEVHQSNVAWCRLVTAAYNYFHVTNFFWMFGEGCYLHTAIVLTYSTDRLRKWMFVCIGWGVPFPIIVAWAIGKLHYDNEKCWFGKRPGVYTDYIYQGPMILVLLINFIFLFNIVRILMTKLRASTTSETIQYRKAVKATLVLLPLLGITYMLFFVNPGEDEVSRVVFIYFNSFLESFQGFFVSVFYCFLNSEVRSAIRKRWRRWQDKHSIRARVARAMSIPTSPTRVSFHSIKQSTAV

mouse CRF2β = mouse CRF2β (Mus musculus, UniProt Q60748); conditions: read-out: Kd for binding to mouse CRF2β; cited from earlier work
Sequence of mouse CRF2β (Q60748 1-431 isoform Q60748-2): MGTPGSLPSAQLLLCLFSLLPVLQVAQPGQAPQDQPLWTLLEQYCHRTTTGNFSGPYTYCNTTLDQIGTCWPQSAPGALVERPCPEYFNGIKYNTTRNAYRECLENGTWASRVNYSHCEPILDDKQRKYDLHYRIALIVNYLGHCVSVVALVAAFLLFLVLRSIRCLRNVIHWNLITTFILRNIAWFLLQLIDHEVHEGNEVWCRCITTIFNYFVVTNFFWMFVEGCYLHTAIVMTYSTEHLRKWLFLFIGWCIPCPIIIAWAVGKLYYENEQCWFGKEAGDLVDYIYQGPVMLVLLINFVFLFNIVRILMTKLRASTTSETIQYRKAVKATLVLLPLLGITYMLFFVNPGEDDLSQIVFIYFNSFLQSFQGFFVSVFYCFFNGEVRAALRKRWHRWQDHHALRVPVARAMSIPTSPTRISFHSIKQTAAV

HEK-mCRF2β cells = molecular target: T6, HEK-mCRF2β cells (Mus musculus, UniProt Q60748); conditions: cited from earlier work
T6 construct: expressed in transfected cells; host or cells: HEK cells (value quoted from the literature)
T6 sequence (Q60748 1-431 isoform Q60748-2): as above

CRF2α = molecular target: T7, CRF2α (Homo sapiens, UniProt Q13324); conditions: cited from earlier work
T7 sequence (Q13324 1-411): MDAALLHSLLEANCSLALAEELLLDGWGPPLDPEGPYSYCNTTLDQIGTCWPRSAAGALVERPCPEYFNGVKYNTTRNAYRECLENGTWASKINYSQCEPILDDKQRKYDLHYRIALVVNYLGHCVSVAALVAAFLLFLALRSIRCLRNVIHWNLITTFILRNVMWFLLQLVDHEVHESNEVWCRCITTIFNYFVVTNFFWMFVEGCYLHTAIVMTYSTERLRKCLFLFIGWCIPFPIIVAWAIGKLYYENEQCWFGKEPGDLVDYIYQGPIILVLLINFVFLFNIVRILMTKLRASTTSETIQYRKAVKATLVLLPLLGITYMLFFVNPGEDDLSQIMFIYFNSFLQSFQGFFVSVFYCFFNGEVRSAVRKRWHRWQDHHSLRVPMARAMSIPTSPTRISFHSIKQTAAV

Glucagon receptor = molecular target: T8, Glucagon receptor (Rattus norvegicus, UniProt P30082); conditions: rat liver membranes; cited from earlier work
T8 construct: from tissue; host or cells: rat liver membranes (value quoted from the literature)
T8 sequence (P30082 27-485): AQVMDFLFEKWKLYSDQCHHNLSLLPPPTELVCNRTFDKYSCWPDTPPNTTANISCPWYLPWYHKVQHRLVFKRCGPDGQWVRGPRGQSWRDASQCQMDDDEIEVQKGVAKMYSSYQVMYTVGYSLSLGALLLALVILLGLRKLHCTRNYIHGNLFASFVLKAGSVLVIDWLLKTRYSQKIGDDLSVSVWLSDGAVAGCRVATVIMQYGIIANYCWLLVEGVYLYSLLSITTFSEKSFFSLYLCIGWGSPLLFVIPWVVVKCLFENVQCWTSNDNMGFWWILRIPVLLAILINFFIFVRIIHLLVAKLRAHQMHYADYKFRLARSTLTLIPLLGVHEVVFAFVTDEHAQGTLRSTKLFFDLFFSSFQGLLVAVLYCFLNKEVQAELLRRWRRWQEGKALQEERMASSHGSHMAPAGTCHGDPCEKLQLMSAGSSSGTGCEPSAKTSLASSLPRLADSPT

For {Ala2,8,9,11,19,22,24,25,27,28}-VIP, the IC50 (VPAC1 receptor) is listed as 115 to 132 nM and the IC50 (VPAC2 receptors) is listed as over 30000 nM.

In the case of glucagon-like peptide-1 [GLP-1], the plasma half-life [1] is listed as 2 min.

For CC[C@H](C)[C@H](NC(=O)[C@H]1CCC[C@@H]1NC(=O)[C@H](CC(N)=O)NC(=O)[C@H](CC(C)C)NC(=O)[C@H](Cc1ccc(O)cc1)NC(=O)[C@H]1CNC[C@@H]1NC(=O)[C@H](CCCCN)NC(=O)[C@@H](NC(=O)[C@H]1CCC[C@@H]1NC(=O)[C@H](CC(C)C)NC(=O)[C@H](CCC(N)=O)NC(=O)[C@H](CCCCN)NC(=O)[C@H]1CNC[C@@H]1NC(=O)[C@H](CC(C)C)NC(=O)[C@H](CCCNC(=N)N)NC(=O)[C@H]1CCC[C@@H]1NC(=O)[C@H](Cc1ccc(O)cc1)NC(=O)[C@H](CC(N)=O)NC(=O)[C@H](CC(=O)O)NC(=O)[C@@H](NC(=O)[C@H](Cc1ccccc1)NC(=O)[C@@H](NC(=O)[C@H](C)NC(=O)[C@H](CC(=O)O)NC(=O)[C@H](CO)NC(=O)[C@@H](N)Cc1c[nH]cn1)C(C)C)[C@@H](C)O)C(C)C)C(=O)N[C@H](CC(=O)NC(CC(N)=O)CC(N)=O)CC(C)C [Compound 8, HSDAVFTDNYXRLZKQLXVKZYLNXILN], the “EC50 compared with wild-type VIP” value (VIPR1; FIG. 3 legend) was “higher than the EC50 of wild-type VIP protein”, the Emax (VIPR1; FIG. 3 legend, read-out: activation of VIPR1 relative to maximum activation) was about 100% and the “Mean RLU” value (VIPR1; [Compound] 1.00E−08 M, agonist mode) was 13750.0 RLU. For the same compound, the “Mean RLU” value (VIPR1; [Compound] 1.00E−09 M, agonist mode) was 18600.0 RLU, the “Mean RLU” value (VIPR1; [Compound] 1.00E−10 M, agonist mode) was 9060.0 RLU and the “Mean RLU” value (VIPR1; [Compound] 1.00E−11 M, agonist mode) was 10500.0 RLU. For the same compound, the “Mean RLU” value (VIPR1; [Compound] 1.00E−12 M, agonist mode) was 10340.0 RLU, the “Mean RLU” value (VIPR1; [Compound] 5.00E−09 M, agonist mode) was 13250.0 RLU and the “Mean RLU” value (VIPR1; [Compound] 5.00E−10 M, agonist mode) was 9520.0 RLU. For the same compound, the “activation of VIPR1” value (VIPR1; agonist mode, FIG. 3) was “fully activate VIPR1”, the “interaction with VIPR2” value (VIPR2) was “does not interact substantially with VIPR2” and the “activation of VIPR2” value (VIPR2; FIG. 3) was “not activate VIPR2”. The “Mean RLU” value (VIPR2; [Compound] 1.00E−07 M) was 5920.0 RLU, the “Mean RLU” value (VIPR2; [Compound] 1.00E−08 M) was 9580.0 RLU and the “Mean RLU” value (VIPR2; [Compound] 1.00E−09 M) was 5960.0 RLU. The “Mean RLU” value (VIPR2; [Compound] 1.00E−10 M) was 7560.0 RLU, the “Mean RLU” value (VIPR2; [Compound] 1.00E−11 M) was 9250.0 RLU and the “Mean RLU” value (VIPR2; [Compound] 1.00E−12 M) was 8960.0 RLU. For the same compound, the “Mean RLU” value (VIPR2; [Compound] 5.00E−07 M) was 10200.0 RLU, the “Mean RLU” value (VIPR2; [Compound] 5.00E−08 M) was 9200.0 RLU and the “Mean RLU” value (VIPR2; [Compound] 5.00E−09 M) was 3560.0 RLU. The “Mean RLU” value (VIPR2; [Compound] 5.00E−10 M) was 9620.0 RLU.

In the case of “Calcitoninreceptor-stimulating peptide-1 (SCNTATCMTHRLVGLLSRSGSMVRSNLLPTKMGFKVFG-NH2; ends and bridges not checked; UniProt Q862B1 81-118, looked up)”, the “ED50, stimulation of cAMP formation” value (calcitonin (CT) receptor; calcitonin (CT) receptor) is given as 02 nM, the “potency of cAMP formation relative to CT” value (calcitonin (CT) receptor; greater than CT) is given as 350 fold and the “activity at CGRP and adrenomedullin receptors” value [2] is given as “no activity at calcitonin-gene related peptide (CGRP) and adrenomedullin”.

In the case of “Neuromedin N (rat, mouse, porcine, canine) (KIPYIL; Neuromedin N; UniProt P20068 142-147, looked up)”, the IC50 (neurotensin receptors) is given as 167 nM.

In the case of Antisauvagine-30, the Kd (rat CRF1 receptors) is given as 1540 nM, the Kd (mouse CRF2β) is given as 14 nM and the “pA2, inhibition of sauvagine-stimulated cAMP accumulation” value (HEK-mCRF2β cells) is given as “accumulation in HEK-mCRF2β cells (pA2=849) Prevents stress-”.

In the case of Astressin, the Ki (CRF2α) is given as 15 nM.

For des-His1-{Glu9}-Glucagon (1-29) amide, the “pA2 for inhibition of glucagon-induced adenylyl cyclase activation” value (Glucagon receptor) is given as “(Glucagon receptor antagonist (pA2=72 for inhibition of glucagon-induced”.

— patent US20210205415A1 (Longevity Biotech, Inc., priority 2010, published 2021)
